Data published in patent US8008320B2, “3-(indolyl)-4-arylmaleimide derivatives and their use as angiogenesis inhibitors” (Johannes Gutenberg-Universitatis, priority 2004, dated 2011).

SMILES | melting point [°C]
COc1ccc(C2=C(c3c[nH]c4ccccc34)C(=O)NC2=O)cc1OC [Example 2, 3-(Indole-3-yl)-4-(3,4-dimethoxyphenyl)-1H-pyrrole-2,5-dione] | 210
COc1ccc2[nH]cc(C3=C(c4cc(OC)c(OC)c(OC)c4)C(=O)NC3=O)c2c1 [Example 3, 3-(5-Methoxyindole-3-yl)-4-(3,4,5-trimethoxyphenyl)-1H-pyrrole-2,5-dione] | 268
COc1cc(C2=C(c3cn(C)c4ccccc34)C(=O)NC2=O)cc(OC)c1OC [Example 4, 3-(1-Methylindole-3-yl)-4-(3,4,5-trimethoxyphenyl)-1H-pyrrole-2,5-dione] | 187
COc1cc(C2=C(c3c(C)[nH]c4ccccc34)C(=O)NC2=O)cc(OC)c1OC [Example 5, 3-(2-Methylindole-3-yl)-4-(3,4,5-trimethoxyphenyl)-1H-pyrrole-2,5-dione] | 266
COc1cc(C2=C(c3c(-c4ccccc4)[nH]c4ccccc34)C(=O)NC2=O)cc(OC)c1OC [Example 6, 3-(2-Phenylindole-3-yl)-4-(3,4,5-trimethoxyphenyl)-1H-pyrrole-2,5-dione] | 304
COc1cc(C2=C(c3cc4ccccc4[nH]3)C(=O)NC2=O)cc(OC)c1OC [Example 7, 3-(Indole-2-yl)-4-(3,4,5-trimethoxyphenyl)-1H-pyrrole-2,5-dione] | 252
COc1cc(C2=C(c3c[nH]c4ncccc34)C(=O)NC2=O)cc(OC)c1OC [Example 8, 3-(7-Azaindol-3-yl)-4-(3,4,5-trimethoxyphenyl)-1H-pyrrole-2,5-dione] | 162
